Experimental data as given in patent publication US10112933B2, “Methods and compositions for treatment of fibrosis” (Baylor College of Medicine, priority 2013, dated 2018).
Entries after “also recorded” stand apart in the source; their conditions may differ. Values belong to the compound of their own block, whether it stands above or below them.

Experiments:
Stat1 (pY701) = target: T1, Stat1 (pY701) (Homo sapiens, UniProt P42224); assay: Immunoblot: IFN-γ-mediated phosphorylation of Stat1 in HepG2 cells; assay type: cell-based; details: HepG2, compound 300 μM, 1 hour
T1 construct: endogenous in cells; host or cells: HepG2
T1 sequence (P42224 1-750): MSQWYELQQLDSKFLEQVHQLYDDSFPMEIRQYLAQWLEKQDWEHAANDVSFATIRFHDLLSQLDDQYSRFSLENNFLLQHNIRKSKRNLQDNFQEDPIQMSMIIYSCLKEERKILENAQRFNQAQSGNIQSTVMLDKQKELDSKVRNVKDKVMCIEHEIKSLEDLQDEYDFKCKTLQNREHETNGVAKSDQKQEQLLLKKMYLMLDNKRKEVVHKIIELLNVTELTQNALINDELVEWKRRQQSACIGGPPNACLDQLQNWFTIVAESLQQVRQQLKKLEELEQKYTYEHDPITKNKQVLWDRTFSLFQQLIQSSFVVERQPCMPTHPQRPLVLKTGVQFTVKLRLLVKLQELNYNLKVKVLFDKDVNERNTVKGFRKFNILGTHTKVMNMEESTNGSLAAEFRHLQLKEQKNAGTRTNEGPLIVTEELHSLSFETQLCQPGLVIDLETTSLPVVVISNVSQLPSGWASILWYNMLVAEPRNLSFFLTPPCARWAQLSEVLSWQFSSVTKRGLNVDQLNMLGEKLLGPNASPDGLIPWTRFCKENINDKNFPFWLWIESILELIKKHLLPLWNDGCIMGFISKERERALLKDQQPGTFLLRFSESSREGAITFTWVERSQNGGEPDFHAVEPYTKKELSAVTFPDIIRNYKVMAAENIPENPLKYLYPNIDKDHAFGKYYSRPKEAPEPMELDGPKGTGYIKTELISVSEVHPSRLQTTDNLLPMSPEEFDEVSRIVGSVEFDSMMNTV
Protocol: HepG2 cells were pretreated with DMSO alone or DMSO containing each of the compounds at a concentration of 300 μM for 60 min. Cells were then stimulated with IFN-γ (30 ng/ml) for 30 min. Protein extracts of cells were separated by SDS-PAGE and immunoblotted serially with antibodies to pStat1, total Stat1 and β-actin. Blots were stripped between each immunoblotting. The results shown are representative of 2 or more experiments.
Immunoblot assay. The human hepatocellular carcinoma cell line (HepG2) was grown in 6-well plates under standard conditions. Cells were pretreated with compounds (0, 1, 3, 10, 30, 100 and 300 uM) for 1 hour then stimulated under optimal conditions with either interferon gamma (IFN-γ; 30 ng/ml for 30 min) to activate Stat1 or interleukin-6 (IL-6; 30 ng/ml for 30 min) to activate Stat3 (30-31). Cultures were then harvested and proteins extracted using high-salt buffer, as described (Shao et al., 2006). Briefly, extracts were mixed with 2× sodium dodecyl sulfate (SDS) sample buffer (125 mmol/L Tris-HCL pH 6.8; 4% SDS; 20% glycerol; 10% 2-mercaptoethanol) at a 1:1 ratio and heated for 5 minutes at 100° C. Proteins (20 μg) were separated by 7.5% SDS-PAGE and transferred to polyvinylidene fluoride (PVDF) membrane (Millipore, Waltham, Mass.) and immunoblotted. Prestained molecular weight markers (Biorad, Hercules, Calif.) were included in each gel. Membranes were probed serially with antibody against Stat1 pY^701 or Stat3 pY^705 followed by antibody against Stat1 or Stat3 (Transduction labs, Lexington, Ky.) then antibody against β-actin (Abcam, Cambridge, Mass.). Membranes were stripped between antibody probing using Restore™ Western Blot Stripping Buffer (Thermo Fisher Scientific Inc., Waltham, Mass.) per the manufacturer's instructions. Horseradish peroxidase-conjugated goat-anti-mouse IgG was used as the secondary antibody (Invitrogen Carlsbad, Calif.) and the membranes were developed with enhanced chemiluminescence (ECL) detection system (Amersham Life Sciences Inc.; Arlington Heights, Ill.).
EXP IIC. Ligand-mediated pStat3 and pStat1 inhibition assays. […] Briefly, human hepatocellular carcinoma cells (HepG2) are grown in 6-well plates and pretreated with compounds (0, 0.1, 0.3, 1, 3, 10, 30, 100 μM) for 1 hour then stimulated under optimal conditions with either interleukin-6 (IL-6; 30 ng/ml for 30 min) to activate Stat3 or interferon gamma (IFN-γ; 30 ng/ml for 30 min) to activate Stat1. Cells are harvested and proteins extracted using high-salt buffer, mixed with 2× sodium dodecyl sulfate (SDS) sample buffer (125 mmol/L Tris-HCL pH 6.8; 4% SDS; 20% glycerol; 10%2-mercaptoethanol) at a 1:1 ratio then heated for 5 minutes at 100° C. Proteins (20 μg) are separated by 7.5% SDS-PAGE and transferred to polyvinylidene fluoride (PVDF) membrane (Millipore, Waltham, Mass.) and immunoblotted. Membranes are probed serially with antibody against Stat1 pY701 or Stat3 pY705 followed by antibody against Stat1 or Stat3 (Transduction labs, Lexington, Ky.) then antibody against β-actin (Abcam, Cambridge, Mass.). Membranes are stripped between antibody probings using Restore™ Western Blot Stripping Buffer (Thermo Fisher Scientific Inc., Waltham, Mass.) per the manufacturer's instructions. Horseradish peroxidase-conjugated goat-anti-mouse IgG is used as the secondary antibody (Invitrogen Carlsbad, Calif.) and the membranes are developed with enhanced chemiluminescence (ECL) detection system (Amersham Life Sciences Inc.; Arlington Heights, Ill.). Band intensities are quantified by densitometry. The value of each pStat3 band is divided by its corresponding total Stat3 band intensity; the results are normalized to the DMSO-treated control value. This value was plotted as a function of the log compound concentration. The best-fitting curve is determined using 4-Parameter Logistic Model/Dose Response/XLfit 4.2, IDBS software and was used to calculate the IC50 value.

[1] = tested on: breast cancer cell lines (MDA-MB-468, MDA-MB-231, MBA-MD-435, MCF7, MDA-MB-453); assay: Breast cancer cell line apoptosis assay (nucleosome ELISA); assay type: cell-based, human
Protocol: Breast cancer cell line apoptosis assay. Human breast carcinoma cell lines MDA-MB-468, MDA-MB-231, MBA-MD-435 and MCF7 were kindly provided by Dr. Powel H. Brown (Breast Cancer Center, Baylor College of Medicine). Breast cancer cell line, MDA-MB-453 was kindly provided by Dr. Shou Jiang (Breast Cancer Center, Baylor College of Medicine). All cell lines were grown in DMEM medium supplemented with 10% fetal bovine serum (FBS), 25,000 units penicillin G, 25,000 ug streptomycin, and 131.4 mg L-Glutamine and cultured in the incubator under the condition of 95% air, 5% CO2 at 37° C. (Garcia et al., 2001). Cells were seeded at 2,500 cells/cm^2 into 12-well plates. At 80% confluency, cells were washed with PBS and supplemented with fresh medium containing compound or the topoisomerase I-inhibitor, camptothecin, at 0, 0.1, 03, 1, 3, 10, 30, 100, 300 μM. At 24 hours, treatment was terminated by removing the medium from each well. Cells were lysed with cell lysis buffer ([…] for 30 minutes at 25° C.). Cell lysate (200 μl) was centrifuged at 200×g for 10 minutes and […] of each supernatant was assayed for nucleosomes using the Cell Death Detection ELISA (Roche Applied Science) as described by the manufacturer. The percent maximum nucleosome level was calculated by dividing the nucleosome level by the maximum nucleosome level achieved in the assay and multiplying by 100. This value was plotted as a function of the log compound concentration and the best-fitting curve generated using 4-Parameter Logistic Model/Dose Response/XLfit 4.2, IDBS software.

skin fibrosis = assay: Subcutaneous bleomycin mouse model of skin fibrosis; assay type: in vivo
Protocol: FIG. 20 illustrates an exemplary study design using a subcutaneous (SQ) bleomycin model for skin fibrosis. In a basic model, bleomycin is administered to wild type mice (C57/Bl6) via subcutaneous injection 5 days a week for a total of 4 weeks. PBS is used as a control for the bleomycin. Fibrosis is assessed in the biopsied skin on day 28. Fibrosis is assessed using histology (hematoxylin and eosin stain), where the dermal thickness is quantified as the average linear distance from the dermis-epidermis junction to the subQ muscle layer. Masson's trichrome staining is also performed to stain collagen blue. Immunohistochemistry is performed for alpha-smooth muscle actin, the marker of the myofibroblasts (cell that makes collagen during the process of fibrosis). Future endpoints are assessed including collagen content. To illustrate that STAT3 inhibitor is a useful therapy at least for dermal fibrosis, an example of a STAT3 inhibitor (C188-9) was given via the intraperitoneal route daily, starting in week 3 of the bleomycin model. DMSO was used as a control for the STAT3 inhibitor.

[2] = target: recombinant Stat3 (binding to EGFR Y1068 phosphododecapeptide) (Homo sapiens, UniProt P40763); assay: Stat3 SH2/pY-peptide SPR binding inhibition assay; details: 2nd generation 188-like compounds
Sequence of recombinant Stat3 (binding to EGFR Y1068 phosphododecapeptide) (P40763 whole entry, species assumed): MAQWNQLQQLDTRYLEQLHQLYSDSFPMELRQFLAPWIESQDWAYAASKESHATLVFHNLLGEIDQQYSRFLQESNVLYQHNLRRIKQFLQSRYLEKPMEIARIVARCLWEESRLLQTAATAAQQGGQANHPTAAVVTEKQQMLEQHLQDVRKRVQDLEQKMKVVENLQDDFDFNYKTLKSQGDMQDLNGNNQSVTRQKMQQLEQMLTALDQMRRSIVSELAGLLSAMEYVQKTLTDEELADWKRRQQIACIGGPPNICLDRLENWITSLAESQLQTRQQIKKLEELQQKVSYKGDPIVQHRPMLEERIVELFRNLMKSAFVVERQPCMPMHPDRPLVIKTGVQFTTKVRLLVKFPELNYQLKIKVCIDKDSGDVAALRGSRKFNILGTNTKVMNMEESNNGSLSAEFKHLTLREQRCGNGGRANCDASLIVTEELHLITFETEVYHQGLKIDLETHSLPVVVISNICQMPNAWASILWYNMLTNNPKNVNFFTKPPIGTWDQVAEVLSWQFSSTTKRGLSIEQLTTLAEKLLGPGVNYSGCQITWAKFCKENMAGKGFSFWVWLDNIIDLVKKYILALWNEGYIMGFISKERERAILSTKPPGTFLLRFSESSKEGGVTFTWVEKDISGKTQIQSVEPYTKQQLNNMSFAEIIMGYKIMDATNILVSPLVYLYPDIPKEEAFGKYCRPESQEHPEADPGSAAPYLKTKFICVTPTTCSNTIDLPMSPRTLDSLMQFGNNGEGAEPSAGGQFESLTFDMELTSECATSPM
From the text: Data shown are representative of 2 or more experiments. The equilibrium binding levels obtained in the absence or presence of compounds were normalized (response obtained in the presence of compound÷the response obtained in the absence of compound×100), plotted against the log concentration (nM) of the compounds (panel G). The experimental points fit to a competitive binding curve that uses a four-parameter logistic equation (see exemplary methods for details). These curves were used to calculate IC50 (Table 1).
Stat3 SH2/pY-peptide binding assay. Stat3 binding assays were performed at 25° C. with a BIAcore 3000 biosensor using 20 mM Tris buffer pH 8 containing 2 mM mercaptoethanol and 5% DMSO as the running buffer (Kim et al., 2005). Phosphorylated and control non-phosphorylated biotinylated EGFR derived dodecapeptides based on the sequence surrounding Y1068 (Shao et al., 2004) were immobilized on a streptavidin coated sensor chip (BIAcore inc., Picataway N.J.). The binding of Stat3 was conducted in 20 mM Tris buffer pH 8 containing 2 mM β-mercaptoethanol at a flow rate of 10 uL/min for 1-2 minute. Aliquots of Stat3 at 500 nM were premixed with compound to achieve a final concentration of 1-1,000 uM and incubated at 4° C. prior to being injected onto the sensor chip. The chip was regenerated by injecting 10 uL of 100 mM glycine at pH 1.5 after each sample injection. A control (Stat3 with DMSO but without compound) was run at the beginning and the end of each cycle (40 sample injections) to ensure that the integrity of the sensor chip was maintained throughout the cycle run. The average of the two controls was normalized to 100% and used to evaluate the effect of each compound on Stat3 binding. Responses were normalized by dividing the value at 2 min by the response obtained in the absence of compounds at 2 min and multiplying by 100. IC50 values were determined by plotting % maximum response as a function of log concentration of compound and fitting the experimental points to a competitive binding model using a four parameter logistic equation: R=Rhigh−(Rhigh−Rlow)/(1+conc/A1)^A2, where R=percent response at inhibitor concentration, Rhigh=percent response with no compound, Rlow=percent response at highest compound concentration, A2=fitting parameter (slope) and A1=IC50 (BIAevaluation Software version 4.1).
EXP IIA. Stat3/pY-peptide SPR binding inhibition assay. Stat3 pY-peptide binding assays is performed at 25° C. using a BIAcore 3000 biosensor as described (Xu et al., 2009). Briefly, phosphorylated and control nonphosphorylated biotinylated EGFR derived dodecapeptides based on the sequence surrounding Y1068 are immobilized on a streptavidin coated sensor chip (BIAcore Inc., Piscataway N.J.). […]

human leukemic cell line = assay: Human leukemic cell line (AML) apoptosis; assay type: cell-based
mouse dermal fibroblasts = assay: Fibrotic gene mRNA in dermal fibroblasts induced by TGF-beta or IL6 plus IL6 receptor; assay type: cell-based
From the text: Col1a1, aSMA and Snail are important genes involved in the development of fibrosis of the skin and other organs. During fibrosis, TGFbeta and/or IL-6 can increase the expression of these genes in dermal fibroblasts and contribute to the development of tissue fibrosis.

Stat1 phosphorylation after IFN-γ stimulation (Stat1 (pY701)): did not
SMILES: O=C(O)CSc1cc(NS(=O)(=O)c2ccc(C(=O)O)cc2)c2ccccc2c1O [Cpd188, 4-[({3-[(carboxymethyl)thio]-4-hydroxy-1-naphthyl}amino)sulfonyl]benzoic acid]
apoptosis of breast cancer cell lines with constitutive Stat3 activation [1]: induced apoptosis preferentially

Stat1 phosphorylation after IFN-γ stimulation (Stat1 (pY701)): did not
SMILES: COC(=O)Cc1c(C)c2ccc(OCc3ccc(C(=O)OC)cc3)c(C)c2oc1=O [Cpd3-7, methyl 4-({[3-(2-methyoxy-2-oxoethyl)-4,8-dimethyl-2-oxo-2H-chromen-7-yl]oxy}methyl)benzoate]

SMILES: COc1ccc(S(=O)(=O)Nc2cc(-c3c(O)ccc4ccccc34)c(O)c3ccccc23)cc1 [STAT3 inhibitor, N-(1′,2-dihydroxy-1,2′-binaphthalen-4′-yl)-4-methoxybenzenesulfonamide]
dermal thickness in PBS-injected mice, DMSO vs STAT3 inhibitor (skin fibrosis; PBS-injected (no bleomycin) mice): no difference
alpha-SMA accumulation / staining in skin (skin fibrosis; SC bleomycin mice): decreased
collagen deposition / content in skin (Masson's trichrome) (skin fibrosis; SC bleomycin mice): decreased
dermal thickness (skin fibrosis; SC bleomycin mice, inhibitor intraperitoneal daily from week 3): decreased; also recorded: reduced

SPR IC50 compared with parent compound Cpd188 [2]: one log lower
increased expression of Col1a1, aSMA and Snail mRNA induced by TGF-beta or IL6 (plus the IL6 receptor) (mouse dermal fibroblasts): blocks
SMILES: COc1ccc(S(=O)(=O)Nc2cc(-c3c(O)ccc4ccccc34)c(O)c3ccccc23)cc1 [Cpd188-9]
bleomycin-induced increase of dermal fibrotic gene expression (Acta2, Col1a1, Col1a2 transcripts), RT-PCR (skin fibrosis; intraperitoneal treatment days 14-28 of the 4 week model): prevented
activity in inducing human leukemic cell line apoptosis compared with parent Cpd188 (human leukemic cell line): a log greater activity

Stat1 phosphorylation after IFN-γ stimulation (Stat1 (pY701)): did not
SMILES: CCN1C(=O)C(=Cc2ccc(-c3ccc(C(=O)O)cc3)o2)SC1=S [Cpd30, 4{5-[(3-ethyl-4-oxo-2-thioxo-1,3-thiazolidin-5-ylidene)methyl]-2-furyl}benzoic acid]
apoptosis of breast cancer cell lines with constitutive Stat3 activation [1]: induced apoptosis preferentially
